The numbers were not newly measured in paper PMC11187573, “Identification of SARS-CoV-2 Mpro inhibitors through deep reinforcement learning for de novo drug design and computational chemistry approaches” (RSC Medicinal Chemistry, 2024), which cites them from elsewhere.

The first data set relates to Mpro. Conditions: ML dataset, Origin COVID_Moonshot; ref COVID Moonshot; cited from earlier work.
As to `COc1ccc(N(Cc2cccc(Cl)c2)C(=O)Cn2nnc3ccccc32)cc1` [CHO-MSK-00c5269a-2], the half-inhibitory concentration (IC50) – broadly, the concentration needed to halve the response being measured – was 3.4 µM.

With `O=C(Cn1nnc2ccccc21)N(Cc1cccc(Cl)c1)c1ccc(N2CCCCC2)cc1` [CHO-MSK-00c5269a-5], the IC50 is 4.83 µM.

As to `Cc1ccncc1NC(=O)Cc1cc(Cl)cc(OCc2nnc(C3CCCCC3)o2)c1` [CHO-MSK-6e55470f-7], the IC50 was 17 µM.

For the compound `O=C(Nc1cnccc1Cl)c1cc(Cl)ccc1O` [CHR-SOS-7098f804-10], the half-inhibitory concentration (IC50) is 24.2 µM.

Consider `O=C(Nc1cccnc1)c1cc(Cl)ccc1-c1ccccc1` [CHR-SOS-7098f804-14], for which the IC50 is 39.1 µM.

Take `N#Cc1cccc(NC(=O)Nc2cncc(N)c2)c1` [DAR-DIA-23aa0b97-8]: the half-inhibitory concentration (IC50) is 54.3 µM.

As for `N#Cc1cccc(NC(=O)Nc2c[nH]c3ncccc23)c1` [DAR-DIA-23aa0b97-11], the half-maximal inhibitory concentration (IC50) is 63.6 µM.

`CC(=O)NC(C)c1cc(F)cc(Cl)c1` (stereo not drawn) [DAV-CRI-3edb475e-6, Mpro-x10172]: the IC50 is 24.4 µM.

In the case of `Cc1ccncc1NC(=O)N(Cc1ccccc1)c1cccc(Cl)c1` [EDG-MED-0da5ad92-20], the IC50 was 22.9 µM.

For the compound `O=C(Nc1cncc2[nH]c(=O)[nH]c12)C1CCOc2ccc(Cl)cc21` (stereo not drawn) [EDG-MED-0e5afe9d-2], the IC50 is 62.8 µM.

`NS(=O)(=O)c1[nH]ncc1C(=O)NC[C@@]1(C(=O)Nc2cncc3ccccc23)CCOc2ccc(Cl)cc21` [EDJ-MED-4c7486ba-8]: the IC50 was 1.99 µM.

With `COCC1(C(=O)Nc2cncc3ccccc23)CCOc2cc(Cl)c(Cl)cc21` (stereo not drawn) [EDJ-MED-37aac4bd-2], the concentration for half-maximal inhibition (IC50) is 4.04 µM.

Turning to `O=C(Cc1cccc(Cl)c1)Nc1cncc2c1OCCC2` [EDJ-MED-976da9a6-1], the IC50 was 10.9 µM.

Regarding `Cc1ccncc1N1CCC(c2cccc(Cl)c2)S1(=O)=O` (stereo not drawn) [EDJ-MED-49816e9b-4], the IC50 is 76.6 µM.

With `Cc1cc(C(F)(F)F)nc2n[nH]c(NC(=O)Cc3cccc(Cl)c3)c12` [EDJ-MED-c8e7a002-5], the 50% inhibitory concentration (IC50) is 90.7 µM.

In the case of `O=C(Cc1cccc(Cl)c1)Nc1n[nH]c2ccc(F)cc12` [EDJ-MED-c8e7a002-9], the half-inhibitory concentration (IC50) was 94 µM.

For the compound `O=C(Cc1cccc(Cl)c1)Nc1[nH]nc2cccc(F)c12` [EDJ-MED-c8e7a002-13], the IC50 is 90.6 µM.

As for `C[C@H]1C[C@@H](C(=O)Nc2cncc3ccccc23)c2cc(Cl)ccc2O1` [EDJ-MED-e4b030d8-3], the IC50 is 32.7 µM.

As for `Cc1c(Cl)ccc2c1[C@H](C(=O)Nc1cncc3ccccc13)CCO2` [EDJ-MED-e4b030d8-8], the IC50 is 3.67 µM.

As for `Cc1ccncc1N1CCC(c2cccc(Cl)c2)C1=O` (stereo not drawn) [EDJ-MED-e66f2cc5-1], the 50% inhibitory concentration (IC50) was 28.8 µM.

`O=C(c1cc(=O)[nH]c2ccccc12)N1CCN(c2cccc(C(F)(F)F)c2)CC1` [ERI-UCB-a0b0dbcb-4]: the concentration for half-maximal inhibition (IC50) was 4.72 µM.

Regarding `O=C(c1cc(=O)[nH]c2ccccc12)N1CCN(Cc2cccc(Cl)c2)CC1` [ERI-UCB-a0b0dbcb-12], the concentration for half-maximal inhibition (IC50) is 4.57 µM.

For the compound `O=C(c1cc(=O)[nH]c2ccccc12)N1CCN(Cc2cccc(C(F)(F)F)c2)CC1` [ERI-UCB-a0b0dbcb-13], the IC50 is 34.2 µM.

Take `O=C(Cc1cncc2ccccc12)Nc1cc(Cl)cc(OC2CCC(=O)N2)c1` (stereo not drawn) [ERI-UCB-ce40166b-6]: the concentration for half-maximal inhibition (IC50) was 28.9 µM.

As for `O=C(Nc1cncc2ccccc12)C1COc2c(Cl)cccc21` (stereo not drawn) [FRA-DIA-c7e803f4-1], the IC50 was 5.06 µM.

In the case of `COc1ccc2c(NC(=O)C3CCOc4ccc(Cl)cc43)noc2c1` (stereo not drawn) [JAG-UCB-52b62a6f-10], the IC50 was 57.5 µM.

In the case of `O=C(Nc1n[nH]c2ccnc(Br)c12)C1CCOc2ccc(Cl)cc21` (stereo not drawn) [JAG-UCB-52b62a6f-15], the half-maximal inhibitory concentration (IC50) was 86.8 µM.

In the case of `O=C(Nc1n[nH]c2ccncc12)C1CCOc2ccc(Cl)cc21` (stereo not drawn) [JAG-UCB-52b62a6f-16], the IC50 is 70.3 µM.

On to `O=C(Nc1cnccc1CO)C1COc2ccc(Cl)cc21` (stereo not drawn) [JAG-UCB-a3ef7265-3, Mpro-x10338], for which the concentration for half-maximal inhibition (IC50) is 30.4 µM.

On to `O=C(Nc1cnccc1CO)[C@@H]1COc2ccc(Cl)cc21` [JAG-UCB-a3ef7265-3], for which the IC50 is 30.4 µM.

Regarding `O=C(Cc1cccc(Cl)c1)Nc1nnn[nH]1` [JAN-GHE-5a013bed-11], the IC50 is 45.3 µM.

As for `O=C(Cc1cncc2ccccc12)N1CCOc2ccc(Cl)cc21` [JOH-UNI-ea1df7a8-1], the IC50 was 4.85 µM.

For `O=C(Nc1c[nH]c(=O)c2ccccc12)C1CCOc2ccc(Cl)cc21` (stereo not drawn) [JOH-UNI-f51e3bbc-1], the IC50 is 91.6 µM.

`CC(C)Cn1cc(NC(=O)NCc2ccco2)c2ccccc2c1=O` [LON-WEI-4d77710c-44]: the concentration for half-maximal inhibition (IC50) was 29.6 µM.

For `COC(=O)c1c(C)nn(C(=O)c2cccs2)c1-c1snnc1C` [LON-WEI-4d77710c-66], the IC50 was 3.12 µM.

Turning to `O=C(Nc1ccc(Cl)cc1)[C@@H](c1ccccc1)N1Cc2ccccc2C1=O` [LON-WEI-b2874fec-16], the IC50 was 82.3 µM.

With `O=C(NCc1cccs1)[C@@H](c1ccccc1)N1Cc2ccccc2C1=O` [LON-WEI-f8a636e2-1], the concentration for half-maximal inhibition (IC50) is 90.7 µM.

For the compound `COc1ccccc1OCCC(=O)Nc1cncc2ccccc12` [MAR-UCB-f313ec4d-3], the concentration for half-maximal inhibition (IC50) is 90.9 µM.

Regarding `CN(C)C(C(=O)Nc1cncc2ccccc12)c1ccc(Cl)c(Cl)c1` (stereo not drawn) [MAT-POS-1f3f1a6f-2], the IC50 is 4.27 µM.

`CC(=O)NC(C(=O)Nc1cncc2ccccc12)c1ccc(Cl)c(Cl)c1` (stereo not drawn) [MAT-POS-1f3f1a6f-3]: the concentration for half-maximal inhibition (IC50) is 4.05 µM.

Take `O=C(Nc1cncc2ccccc12)C(NCC1CC1)c1ccc(Cl)c(Cl)c1` (stereo not drawn) [MAT-POS-1f3f1a6f-4]: the 50% inhibitory concentration (IC50) is 1.75 µM.

As for `O=C(Cc1cc(Cl)cc(OC2CC(=O)N2)c1)Nc1cc(=O)[nH]c2ccccc12` (stereo not drawn) [MAT-POS-3b92565d-6], the half-inhibitory concentration (IC50) was 91.1 µM.

In the case of `CN(C)C(=O)CC1(C(=O)Nc2cncc3ccccc23)CCOc2ccc(Cl)cc21` (stereo not drawn) [MAT-POS-5d65ec79-1], the IC50 was 2.92 µM.

On to `OC(Cc1cccc(Cl)c1)Cn1cncn1` (stereo not drawn) [MAT-POS-6da3605a-2], for which the half-inhibitory concentration (IC50) is 82.2 µM.

Consider `O=C(Nc1cncc2ccccc12)C1(CO)CCOc2ccc(Cl)cc21` (stereo not drawn) [MAT-POS-9db1e783-2], for which the IC50 was 1.09 µM.

In the case of `O=C(Cc1cc(Cl)cc(OC2CCC(=O)N2)c1)Nc1cncc2ccccc12` (stereo not drawn) [MAT-POS-9ff17035-1], the IC50 was 85.9 µM.

For the compound `O=C(Cc1cc(Cl)cc(Oc2cccc(=O)[nH]2)c1)Nc1cncc2ccccc12` [MAT-POS-9ff17035-2], the half-maximal inhibitory concentration (IC50) is 1.98 µM.

Take `O=C(Cc1cccc(Cl)c1)Nc1cncc2c1CCCN2` [MAT-POS-14ad9fe9-1]: the IC50 is 5.66 µM.

In the case of `O=C(Cc1ccc(Cl)c(Cl)c1)Nc1cncc2ccccc12` [MAT-POS-23a8a11a-1, O=C(Cc1ccc(Cl)c(Cl)c1)Nc1cncc2ccccc12, reference compound], the IC50 is 0.196 µM.

On to `CNC(=O)C1(CC(=O)Nc2cncc3ccccc23)CCOc2ccc(Cl)cc21` (stereo not drawn) [MAT-POS-78e1d523-2], for which the IC50 is 30.7 µM.

`CC(C(N)=O)c1cc(Cl)cc(CC(=O)Nc2cncc3ccccc23)c1` (stereo not drawn) [MAT-POS-281d2ee9-1]: the IC50 was 2.62 µM.

Turning to `O=C(Cc1cc(Cl)cc(-c2nnn[nH]2)c1)Nc1cncc2ccccc12` [MAT-POS-281d2ee9-3], the IC50 is 21.4 µM.

The same data set, now with this note: ML dataset, Origin ChEMBL; ref ChEMBL; cited from earlier work.
In the case of `O=C(Oc1cncc(Cl)c1)c1cscn1` [CHEMBL222628, O=C(c1cscn1)Oc1cc(Cl)cnc1, reference compound], the 50% inhibitory concentration (IC50) is 0.27 µM.

Turning to `O=C(Oc1cncc(Cl)c1)c1ccc(-c2ccc(Cl)cc2)o1` [CHEMBL222769, O=C(c1ccc(-c(cc2)ccc2Cl)o1)Oc1cc(Cl)cnc1, reference compound], the IC50 was 0.063 µM.

Consider `O=C(Oc1cncc(Cl)c1)c1ccco1` [CHEMBL222840, O=C(c1ccco1)Oc1cc(Cl)cnc1, reference compound], for which the IC50 is 0.06 µM.

With `O=C(Oc1cncc(Cl)c1)c1cc2ccccc2s1` [CHEMBL222893, O=C(c1cc(cccc2)c2s1)Oc1cc(Cl)cnc1, reference compound], the half-maximal inhibitory concentration (IC50) was 0.095 µM.

With `O=C(Oc1cncc(Cl)c1)c1cc2ccccc2[nH]1` [CHEMBL225515, O=C(c1cc(cccc2)c2[nH]1)Oc1cc(Cl)cnc1, reference compound], the IC50 was 0.065 µM.

Turning to `Cn1sc(=O)n(Cc2ccccc2)c1=O` [CHEMBL284861, CN(C(N1Cc2ccccc2)=O)SC1=O, reference compound], the IC50 was 0.14 µM.

In the case of `Cc1nn(C)c(NCc2ccc(-c3cccs3)s2)c1[N+](=O)[O-]` [CHEMBL375130], the 50% inhibitory concentration (IC50) was 20 µM.

Take `CSc1[nH]nc(NC(=O)c2cccs2)c1S(=O)(=O)c1ccccc1` [CHEMBL378700]: the IC50 is 15 µM.

Take `O=[N+]([O-])c1cc(C(F)(F)F)ccc1S(=O)(=O)c1ccc(Cl)cc1` [CHEMBL380403]: the half-inhibitory concentration (IC50) was 12 µM.

Consider `O=C(Oc1cncc(Cl)c1)c1cc2ccccc2o1` [CHEMBL426898, O=C(c1cc(cccc2)c2o1)Oc1cc(Cl)cnc1, reference compound], for which the IC50 is 0.17 µM.

Turning to `Cc1noc(NC(=O)c2ccc(-c3cc(C(F)(F)F)nn3C)s2)c1[N+](=O)[O-]` [CHEMBL427404, Cc1noc(NC(c2ccc(-c3cc(C(F)(F)F)nn3C)s2)=O)c1[N+]([O-])=O, reference compound], the IC50 was 5 µM.

As for `Nc1ccc2cc3ccc(N)cc3nc2c1` [CHEMBL465704, CHEMBL55400], the IC50 is 0.595 µM.

Regarding `CC[C@H](CO)Nc1nc(NCc2ccc(-c3ccccn3)cc2)c2ncn(C(C)C)c2n1` [CHEMBL518800, CC[C@H](CO)Nc1nc(NCc(cc2)ccc2-c2ncccc2)c2ncn(C(C)C)c2n1, reference compound], the IC50 is 0.84 µM.

`C/N=c1/nc(-c2ccccc2)n(-c2ccccc2)s1` [CHEMBL1188627, C/N=C(/N=C1c2ccccc2)\SN1c1ccccc1, reference compound]: the 50% inhibitory concentration (IC50) was 0.98 µM.

Take `Cc1ccc(C)c(-n2sc3cc(F)ccc3c2=O)c1` [CHEMBL1725120, Cc1cc(N2Sc(cc(cc3)F)c3C2=O)c(C)cc1, reference compound]: the half-maximal inhibitory concentration (IC50) is 0.02 µM.

On to `CCOC(=O)Cc1ccc(-c2ccccc2)cc1` [CHEMBL1886408, CCOC(Cc(cc1)ccc1-c1ccccc1)=O, reference compound], for which the IC50 is 0.2 µM.

As for `Cc1ccc(-n2sc(=O)n(Cc3ccc(F)cc3)c2=O)cc1` [CHEMBL1917204, Cc(cc1)ccc1N(C(N1Cc(cc2)ccc2F)=O)SC1=O, reference compound], the IC50 was 0.19 µM.
